Experimental data from patent US20110269802A1, “METHOD OF DELIVERY OF PERISHABLE LIQUID MIXTURES USING MIXING CAP AND CONTAINER SYSTEM” (priority 2010, published 2011).

Test system: diabetic, insulin dependent canine test subject
Assay: GABA in drinking water given to diabetic, insulin dependent canine subjects; monitoring of fasting blood glucose and fructosamine
Assay type: in vivo
Conditions: for decline of fasting blood glucose: 30 mg/kg daily in 200 milliliters of water, oral, after two months of treatment, subject as its own control
Method: METHODS: GABA (99% pure from Sigma-Aldrich) at a dose of 30 mg/kg was brought into solution in 200 milliliters of water daily so that the diabetic, insulin dependent canine test subject consumed the dose within approximately four hours, based on average consumption of water observed by owners. Fasting blood glucose and fructosamine were monitored once a month. Each canine subject served as its own control, with monitoring of blood glucose and fructosamine off treatment recorded the first two months followed by monitoring while on GABA therapy.

Question: What does the source list for `NCCCC(=O)O` [GABA, gamma-aminobutyric acid]?
Answer: concentrations of blood fructosamine (both subjects, 30 mg/kg daily in water, on treatment versus off treatment): significantly lower; decline of fasting blood glucose (first test subject): 49.6%; glycemic control (insulin dependent test subjects, 30 mg/kg daily in water, within two weeks, continued improvement over four months): improved glycemic control within two weeks; decline of fasting blood glucose (second test subject): 50%
